{"source": "paper PMC12613816", "about": "“Discovery of Novel Isoxazole-Based Small-Molecule Toll-Like Receptor 8 Antagonists” (Journal of Medicinal Chemistry, 2025)", "key": {"hTLR7": {"target": "T1, hTLR7 (Homo sapiens, UniProt Q9NYK1)", "T1 construct": "host or cells: HEK293 (HEK-Blue hTLR7)", "T1 sequence (Q9NYK1 27-1049)": "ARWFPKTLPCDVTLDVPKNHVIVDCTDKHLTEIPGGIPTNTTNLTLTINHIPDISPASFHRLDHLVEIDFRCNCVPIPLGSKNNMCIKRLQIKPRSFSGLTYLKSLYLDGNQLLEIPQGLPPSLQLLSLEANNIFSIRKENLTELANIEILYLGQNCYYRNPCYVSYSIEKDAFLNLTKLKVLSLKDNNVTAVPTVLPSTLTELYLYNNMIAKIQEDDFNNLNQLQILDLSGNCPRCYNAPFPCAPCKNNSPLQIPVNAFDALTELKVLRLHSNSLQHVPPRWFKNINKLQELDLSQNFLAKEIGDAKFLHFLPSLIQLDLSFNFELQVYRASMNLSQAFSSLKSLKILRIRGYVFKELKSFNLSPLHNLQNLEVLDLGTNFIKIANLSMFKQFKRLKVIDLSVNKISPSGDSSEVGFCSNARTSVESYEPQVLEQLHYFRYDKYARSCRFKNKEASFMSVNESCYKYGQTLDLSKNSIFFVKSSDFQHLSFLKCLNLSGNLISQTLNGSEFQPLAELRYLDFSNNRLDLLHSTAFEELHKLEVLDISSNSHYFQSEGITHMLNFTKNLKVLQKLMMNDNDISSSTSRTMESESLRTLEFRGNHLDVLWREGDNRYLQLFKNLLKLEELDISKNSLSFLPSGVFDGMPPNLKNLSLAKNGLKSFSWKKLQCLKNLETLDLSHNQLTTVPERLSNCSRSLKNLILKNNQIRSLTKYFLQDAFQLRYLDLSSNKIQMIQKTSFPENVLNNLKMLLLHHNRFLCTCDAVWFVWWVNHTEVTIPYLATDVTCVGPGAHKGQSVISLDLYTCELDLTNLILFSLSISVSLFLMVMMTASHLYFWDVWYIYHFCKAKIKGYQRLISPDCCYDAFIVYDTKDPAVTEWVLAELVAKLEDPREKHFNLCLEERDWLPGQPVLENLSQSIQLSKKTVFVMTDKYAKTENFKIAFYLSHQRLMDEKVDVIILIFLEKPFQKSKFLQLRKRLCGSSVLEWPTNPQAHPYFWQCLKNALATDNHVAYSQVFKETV", "test": "Inhibition of CL307-stimulated NF-κB activity (SEAP reporter) in hTLR7-HEK293 reporter cells", "assay_type": "cell-based", "conditions": "read-out: IC50 [μM] (95% CI) hTLR7-HEK293; inhibition of NF-κB activity; 1 h preincubation, CL307 (1.7 µM) 24 h", "description": "For stimulation experiments, cells were washed with phosphate-buffered saline (PBS, Sigma-Aldrich) and media was replaced with OptiMEM (Thermo Fisher Scientific, Darmstadt, Germany). […] The following TLR ligands were used: Pam2CSK4, Pam3CSK4, poly(I:C) (HMW), LPS from Escherichia coli O111:B4 (LPS-EB Ultrapure), flagellin from Bacillus subtilis (flagellin-BS Ultrapure), CL307, CL075, R848, TL8-506, ODN2006 (all from InvivoGen, Toulouse, France), and Enpatoran (BIOZOL Diagnostika, Germany)."}, "TLR8 F495L mutation": {"target": "T2, TLR8 F495L mutation (Homo sapiens, UniProt Q9NR97, F495L)", "T2 construct": "host or cells: HEK-Blue Null1 cells, transient transfection with PEI Max", "T2 sequence (Q9NR97 1-1059 isoform Q9NR97-2 F513L)": "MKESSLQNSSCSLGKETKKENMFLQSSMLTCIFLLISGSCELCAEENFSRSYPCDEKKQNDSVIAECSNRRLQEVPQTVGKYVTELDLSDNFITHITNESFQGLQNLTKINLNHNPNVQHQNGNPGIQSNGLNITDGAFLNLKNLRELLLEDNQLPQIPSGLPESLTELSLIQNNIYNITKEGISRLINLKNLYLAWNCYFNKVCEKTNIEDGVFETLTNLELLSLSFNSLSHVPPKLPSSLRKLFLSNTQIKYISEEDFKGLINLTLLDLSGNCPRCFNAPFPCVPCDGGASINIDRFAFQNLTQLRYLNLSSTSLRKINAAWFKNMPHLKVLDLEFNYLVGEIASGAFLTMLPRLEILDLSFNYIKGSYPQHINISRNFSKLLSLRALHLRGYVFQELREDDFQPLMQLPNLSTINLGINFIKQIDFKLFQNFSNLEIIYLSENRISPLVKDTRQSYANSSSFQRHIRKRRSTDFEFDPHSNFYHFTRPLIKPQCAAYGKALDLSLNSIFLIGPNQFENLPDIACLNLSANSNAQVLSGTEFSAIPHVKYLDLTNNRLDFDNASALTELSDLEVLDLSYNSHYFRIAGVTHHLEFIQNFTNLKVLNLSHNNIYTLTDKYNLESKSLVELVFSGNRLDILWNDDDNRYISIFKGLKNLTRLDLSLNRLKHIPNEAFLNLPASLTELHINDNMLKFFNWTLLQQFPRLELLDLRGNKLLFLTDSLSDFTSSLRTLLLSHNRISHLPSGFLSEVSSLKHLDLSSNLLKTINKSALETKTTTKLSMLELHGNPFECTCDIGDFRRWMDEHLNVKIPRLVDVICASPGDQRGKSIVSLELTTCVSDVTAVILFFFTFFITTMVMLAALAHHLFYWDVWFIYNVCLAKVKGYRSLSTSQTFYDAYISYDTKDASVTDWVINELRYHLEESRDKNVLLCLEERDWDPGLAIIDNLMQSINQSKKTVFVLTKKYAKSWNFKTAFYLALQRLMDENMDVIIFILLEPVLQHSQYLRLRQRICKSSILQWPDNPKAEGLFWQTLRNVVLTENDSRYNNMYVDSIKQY", "test": "NF-κB SEAP reporter in HEK293 reporter control cells transfected with TLR8 F495L mutant plasmid", "assay_type": "cell-based", "conditions": "compound 10 2 μM, Enpatoran 1 μM; TL8-506 3 μM or CL075 4 μM, 24 h"}, "TLR8 [1]": {"target": "T3, TLR8 (Homo sapiens, UniProt Q9NR97)", "T3 sequence (Q9NR97 27-1041)": "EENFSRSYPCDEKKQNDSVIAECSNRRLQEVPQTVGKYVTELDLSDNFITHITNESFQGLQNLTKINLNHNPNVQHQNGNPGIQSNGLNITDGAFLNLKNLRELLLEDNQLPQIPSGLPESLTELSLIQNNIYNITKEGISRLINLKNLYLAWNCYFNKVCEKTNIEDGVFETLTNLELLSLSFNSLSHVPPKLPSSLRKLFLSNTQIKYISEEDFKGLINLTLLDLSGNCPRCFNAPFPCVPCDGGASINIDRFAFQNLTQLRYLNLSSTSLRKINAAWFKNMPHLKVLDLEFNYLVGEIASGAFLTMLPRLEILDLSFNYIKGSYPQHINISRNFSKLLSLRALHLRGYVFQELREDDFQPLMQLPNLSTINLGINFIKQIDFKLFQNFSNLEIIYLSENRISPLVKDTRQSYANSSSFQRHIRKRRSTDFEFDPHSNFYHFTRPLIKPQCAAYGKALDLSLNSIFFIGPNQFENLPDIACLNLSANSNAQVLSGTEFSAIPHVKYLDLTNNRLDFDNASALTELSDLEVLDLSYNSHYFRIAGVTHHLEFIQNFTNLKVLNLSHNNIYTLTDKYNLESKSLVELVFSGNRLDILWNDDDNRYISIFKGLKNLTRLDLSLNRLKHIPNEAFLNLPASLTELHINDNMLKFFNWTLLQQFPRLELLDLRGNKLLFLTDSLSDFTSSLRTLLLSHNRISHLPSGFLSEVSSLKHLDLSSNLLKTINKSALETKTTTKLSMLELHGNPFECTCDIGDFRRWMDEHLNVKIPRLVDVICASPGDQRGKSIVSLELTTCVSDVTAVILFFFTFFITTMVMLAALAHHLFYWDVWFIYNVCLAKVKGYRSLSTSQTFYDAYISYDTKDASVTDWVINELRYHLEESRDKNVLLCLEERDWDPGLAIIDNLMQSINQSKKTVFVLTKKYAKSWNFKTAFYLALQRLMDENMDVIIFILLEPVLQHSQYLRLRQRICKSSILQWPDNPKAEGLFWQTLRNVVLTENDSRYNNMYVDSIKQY", "test": "Inhibition of TL8-506-stimulated NF-κB activity (SEAP reporter, QuantiBlue) in hTLR8-HEK293 reporter cells", "assay_type": "cell-based", "set-up": "host or cells: HEK293 (HEK-Blue hTLR8)", "conditions": "TL8-506 (0.6 μM) 24 h"}, "TLR8 [2]": {"target": "T3, TLR8", "test": "Inhibition of TL8-506-stimulated TNF release (ELISA) in PBMCs", "conditions": "read-out: IC50 [μM] (95% CI) TNF release PBMCs, 1 h preincubation, TL8-506 (0.6 μM) 4 h", "text": "For the calculation of concentration–response curves, nonlinear regression with variable slope (four parameters) was used. Mean ± SEM (n = 3).\nPMBCs were washed three times with PBS containing ETDA and afterward seeded in 24-well plates (5 × 10^6 cells/well)."}}, "data": [{"compound": "N#Cc1ccc(N2C[C@H](N)C[C@H](C(F)(F)F)C2)c2cccnc12", "note": "[Enpatoran, reference compound]", "values": [{"measurement": "IC50", "setting": "hTLR7", "value": "≤ 0.05", "unit": "µM"}, {"measurement": "TLR8 activation in F495L mutation, triggered by CL075 and TL8-506", "setting": "TLR8 F495L mutation", "value": "reduced"}, {"measurement": "inhibition at 10 µM", "setting": "TLR8 [1]; read-out: % inhibition at 10 µM ± SEM (NF-κB activity), 10 µM compound, hTLR8-HEK293", "value": 100, "unit": "%"}, {"measurement": "IC50", "setting": "TLR8 [1]; read-out: IC50 [μM] (95% CI) hTLR8-HEK293, inhibition of NF-κB activity, 1 h preincubation", "value": 0.285, "unit": "µM"}, {"measurement": "IC50", "setting": "TLR8 [2]", "value": 0.074, "unit": "µM"}]}]}
